How the values were obtained:
[1] = test system: K14Cre; Brca1^F/F; P53^F/F; assay: Tumour latency and tumour incidence in the Brca1/P53 deficient mouse model; format: in vivo, mice
Source text: The study model used was a genetically modified mouse, generated by the group led by Jos Jinkers from the Netherland Cancer Institute and generously donated to our group. It is a conditional double knock-out (KO) for Brca1 and P53 that expresses Cre-recombinase under the promoter of the cytokeratin-14 gene (K14) as a model named: K14Cre; Brca1^F/F; P53^F/F (hereinafter Brca1 or KO). These mice develop mammary tumours (cancers) with a penetrance of 100% (although it depends on whether they develop skin cancer first and must be sacrificed) and a median age of 7 months. They mimic human tumours with BRCA1 mutations, since they are basal-type and lose P53. Since Cre-recombinase under the promoter of the K14 gene is not only expressed in mammary cells, but also in other epithelial cells, these mice develop squamous cell carcinoma-like skin tumors. The cohort of mice used in this study has an FVB/N genetic background. […]

Brca1/P53-deficient mice = assay: Ki-67 immunohistochemistry as a proliferation marker in the mammary epithelium; format: in vivo
Procedure: Subsequently, the same groups of animals indicated were generated and samples were collected from the mammary glands at 1, 3, 7, 30 and 60 days post-gestation (in non-lactating multiparous) or post-weaning (in lactating multiparous, with and without treatment with cabergoline) (N = 5 mice per group at each time studied).
Ki67 staining was performed at the Comparative Molecular Pathology Service of the Cancer Molecular and Cellular Biology Institute in Salamanca. Sections of the sample were made at 3 µm thickness. Sections were fished onto slides specially treated for this technique (Leica BOND Plus Slides, #S21.2113.A, Leica). The staining process was carried out using the Roche Discovery ULTRA research instrument. The protocol performed by the apparatus is as follows: deparaffinization of the sample, heating the slide to 69 °C; cell conditioning that consisted in the unmasking of the epitope by incubating the sample in a buffer formed by TRIS EDTA pH8 at a temperature of 100 °C for 32 minutes. Next, the primary antibody (Rabbit Anti-Human Ki-67 Monoclonal Antibody (Clone SP6), #MAD-020310Q, Master Diagnostica) was applied manually at a 1:50 dilution and incubated at 37 °C for 60 minutes. After incubation of the primary antibody, two washes with HRP buffer were performed. […]
To quantify cells positive for Ki-67 or caspase 3, the Leica Application Suite (LAS) V3.7 program was used. […]

Q: For `C=CCN1C[C@H](C(=O)N(CCCN(C)C)C(=O)NCC)C[C@@H]2c3cccc4[nH]cc(c34)C[C@H]21` [cabergoline, 1-[(6-allylergolin-8ß-yl)-carbonyl]-1-[3-(dimethylamino)propyl]-3-ethylurea], which tumour latency ([1]; single intraperitoneal dose 0.25 mg/Kg at weaning after second lactation, vs pregnancy and lactation group P = 0.019, non-lactation pregnancy group P < 0.0001, nulliparous P < 0.0001) is on record?
A: greater latency

Q: What about the tumour incidence ([1]; single intraperitoneal dose 0.25 mg/Kg at weaning, 10 mice out of 37 developed tumour, vs lactating multiparous mice P = 0.0062) of the same compound?
A: 27.78%

Q: What about the “epithelial proliferation (% of Ki67+ cells)” value (Brca1/P53-deficient mice; 30 days post-weaning) of the same compound?
A: profound hypoproliferative state

Q: What about the “epithelial proliferation (% of Ki67+ cells)” value (Brca1/P53-deficient mice; 60 days of post-lactational involution) of the same compound?
A: hypoproliferative state

Source: patent EP4285905A1, “CABERGOLINE OR A PHARMACEUTICALLY ACCEPTABLE SALT OR SOLVATE THEREOF, FOR USE IN PREVENTION OR DELAY OF POST-PREGNANCY BREAST CANCER IN A FEMALE MAMMAL” (Consejo Superior de Investigaciones Cientificas, priority 2022, dated 2023)
